Columns and labels:
[1] = test system: Human immortalized keratinocytes (HaCaT); assay: Cytotoxicity assay (LDH activity in supernatant as a measure for cell death); assay type: cell-based; details: for cell death (LDH activity): normal culture conditions (without menadione)
Method: FIG. 1: HaCat cells were incubated with 10 μM hesperetin (hp, red bars) or low 10 μM hesperetin-7-O-glucuronide (hp-7-O-gluc, yellow bars) or equal amounts of DMSO as a control (blue bars) and treated with or without menadione for additional 5 h. The supernatant was analyzed for lactate dehydrogenase (LDH) activity and results were expressed relative to cells which were lysed with Triton X-100® before analysis (100% death). Human immortalized keratinocytes (HaCaT) were incubated with 10 μM hesperetin, 10 μM hesperetin-7-O-glucuronide or equal amounts of DMSO as a negative control for 16 h and 1 h before challenge. Cells were then treated with 100 μM menadione, a xenobiotic which generates reactive oxygen species intracellularly. Non-menadione treated cells were used as a positive control. After 5 h the supernatant was analysed for lactate dehydrogenase (LDH) activity as a measure for cell death using the CytoTox 96 non-radioactive cytotoxicity assay (Promega, USA).

rat skin = assay: Histopathological analysis of rat skin, hesperidin growth trial; assay type: in vivo, female wistar rats; details: rats fed hesperidin diet (0.1% and 0.5%) from weaning to 12 weeks of age, vs control diet
Text: FIG. 3: Histopathological analysis of rat skin supplemented with hesperidin. 6 μm paraffin sections were de-waxed, stained with hematoxylin/eosin and mounted. Representative images in two magnifications are shown for the control group (A and D) and the groups supplemented with hesperidin (0.1%: B and E, 0.5% C and F).
(§1) Rat skin biopsies were obtained from the Heperidin growth trial (FIG. 2). Dorsal skin was excised, one part was fixed in 4% PFA and paraffin embedded, one part was cryo-preserved and another part was immediately frozen in liquid nitrogen.
Rat skin was dissected and fixed for 4 days in 4% paraformaldehyde in PBS (pH 7.4) at 4° C. and embedded in paraffin using a Leica Microsystem embedding apparatus. The tissues were washed in PBS and saline (0.9% NaCl) and dehydrated by passing them through saline solutions with increasing ethanol concentrations: 30 min each in 30%, 50%, 70%, 90%, 99%, 100% and an additional hour in 100%. Tissue samples were incubated twice for 30 min in xylene, followed by 2-3 h and 3 h incubations in paraffin wax at 60° C. 6 μm thick paraffin sections were cut using a Leica Microtome. Sections were de-waxed 5 min in xylene and dehydrated by passing them through a series of solutions with decreasing ethanol concentrations: 1 min each in 100%, 96%, 90%, 80%, 70%, and 50% ethanol. Finally, they were transferred into destilled water and stained. […]

interleukin 6 (IL-6) = assay: Real-time PCR of rat skin total RNA, IL-6 expression; assay type: in vivo, female wistar rats; details: rats fed 0.5% hesperidin diet, vs control diet
Method: (§2) FIG. 4: Real-time PCR analysis of total RNA isolated from rat skin fed either a control diet (ctrl) or a hesperidin-supplemented diet (0.1% Hp, 0.5% Hp) for the expression of CD1d1 and interleukin 6 (IL-6). Samples were analyzed in 3 pools containing 4 rats each and obtained Ct values are shown for CD1d1 in A and IL-6 in B. Dots represent averages of technical triplicates, bars the total average per group. Fold changes in relative expression of the supplementation compared to control diet and relative to a housekeeping gene are shown in C. The control diet was set to 1 fold and is represented by a thick line. Confident intervals were calculated using ANOVA.
as §1
(§3) Skin samples were homogenized with Lysing Matrix D, total RNAs were extracted using the ToTally RNA™ Kit following the manufacturer's instructions. RNA was eluted with 40 μl of nuclease-free water.
(§4) The quantification was performed using the Ribogreen® RNA quantitation Kit on 96-well plates and a fluorescence microplate reader according to the manual. Measurements were done in duplicate. The samples were diluted either 1:680 or 1:3400 in a final volume of 100 μl 1×TE buffer. […]
(§5) Data were analysed by ANOVA. […]

CD1d1 antigen = assay: Real-time PCR of rat skin total RNA, CD1d1 expression; assay type: in vivo, female wistar rats; details: vs control diet
Method: as §2, §1, §3, §4, §5

| SMILES | cell death (LDH activity) ([1]; 10 μM, vs DMSO control) | potency of protective effect compared to the aglycone ([1]; 10 μM each, FIG. 1) | protective effect against cell death (LDH activity) ([1]; 10 μM, challenged with 100 μM menadione for 5 h, vs DMSO control) | number of inflammatory cells in skin (histopathology) (rat skin) | IL-6 mRNA levels in skin (interleukin 6 (IL-6)) | CD1d1 mRNA levels in skin (CD1d1 antigen; rats fed 0.1% hesperidin diet) | CD1d1 mRNA levels in skin (CD1d1 antigen; rats fed 0.5% hesperidin diet) |
| --- | --- | --- | --- | --- | --- | --- | --- |
| COc1ccc([C@@H]2CC(=O)c3c(O)cc(O)cc3O2)cc1O [hesperetin] | reducing cell death |  |  |  |  |  |  |
| COc1ccc([C@@H]2CC(=O)c3c(O)cc(O[C@@H]4O[C@H](C(=O)O)[C@@H](O)[C@H](O)[C@H]4O)cc3O2)cc1O [hesperetin-7-O-glucuronide] | reducing cell death | more potent compared to hp | even more pronounced |  |  |  |  |
| COc1ccc([C@@H]2CC(=O)c3c(O)cc(O[C@@H]4O[C@H](CO[C@@H]5O[C@@H](C)[C@H](O)[C@@H](O)[C@H]5O)[C@@H](O)[C@H](O)[C@H]4O)cc3O2)cc1O [hesperidin] |  |  |  | reduced number of inflammatory cells | significantly reduced | significantly decreased | significantly decreased |

Reference: patent US9717671B2, “Composition for improving skin, hair and coat health containing flavanones” (Nestec S.A., priority 2003, dated 2017)
